Assays:
Type in all cases: biochemical
Details in all cases: 10 μM compound
[1] = molecular target: T1, PKA (catalytic subunit, bovine heart) (Bos taurus, UniProt P00517); experiment: Protein Kinase A inhibition assay (PKA)
T1 construct: PKA (catalytic subunit, bovine heart, Calbiochem 539486); purchased Calbiochem 539486; host or cells: bovine heart (tissue-derived)
Method: (§1) The ERK2 kinase activity assay utilizes a radioactivity-based format in a 96-well PCR plate with radioactive readout. The ERK2 activity was assayed in a 25 μL assay mixture containing 25 mM HEPES (pH 7.0), 250 μM ATP, 1 mM MgCl2, 1 mM DTT, 2% DMSO, 150 ng/mL Myelin Basic Protein (MBP, Sigma M-1891), and 13.6 ng/mL His tagged ERK2 (specific activity=38.1 nmol/min*mg). Compounds were screened for inhibition of the ERK2 kinase activity at a concentration of 10 μM. The kinase reaction was allowed to proceed at 37° C. for 30 minutes, then reaction was stopped by the addition of 5 μl of 0.5M EDTA (pH 8). 15 μL of each solution were then spotted onto the corresponding square of a filtermat (8×12 glassfibre mat 90×120 mm, PE-Wallac 1450-421). The filtermat was allowed to dry and washed once with 10% TCA, 2% PPA, 500 mM NaCl each for 30 minutes at rt. Two further washings in 10% TCA and 2% PPA for 30 minutes were performed, then a final 30 minute wash in 99% EtOH at rt was done and the filtermat was air dried. The dry filtermat was then placed in a sample bag with a Meltilex sheet (Melt-on scintillator sheets 73×109 mm, PE-Wallac 1450-441 for filtermat A) over the filtermat. The bag was trimmed to fit into the microplate heatsealer (PE-Wallac 1495-021). The heatsealer is used to melt the Meltilex on the filtermat. The bag containing the filtermat and the melted Meltilex was then placed into a filter cassette and counted using the Microbeta Jet Scintillation and Luminescence Counter PE-Wallac 1450.
The PKA kinase activity assay utilizes a radioactivity-based format in a 96-well PCR plate with radioactive readout. The PKA activity was assayed in a 25 μL assay mixture containing 25 mM HEPES (pH 7.0), 250 μM ATP, 10 mM MgCl2, 1 mM DTT, 1 mM EDTA (pH 8). 2% DMSO. 250 ng/mL Histone H2B (Roche 223 514), and 2 ng/mL PKA (catalytic subunit, bovine heart, Calbiochem 539486, specific activity=1170 pmol/min*μg). Compounds were screened for inhibition of the PKA kinase activity at a concentration of 10 μM. The kinase reaction was allowed to proceed at 37° C. for 30 minutes, then the reaction was stopped by addition of 5 μL of 0.5M EDTA (pH 8). The remainder of the protocol is identical to the one reported for ERK2.

[2] = test system: PKC (rat brain); experiment: Protein Kinase C inhibition assay (PKC)
Method: as §1
The PKC kinase activity assay utilizes a radioactivity-based format in a 96-well PCR plate with radioactive readout. The PKC activity was assayed in a 25 μL assay mixture containing 25 mM HEPES (pH 7.0), 250 μM ATP, 10 mM MgCl2, 1 mM DTT, 1 mM EDTA (pH 8), 2 mM CaCl2, 2% DMSO, 250 ng/mL Histone H1 (Roche 1 004 875), and 165 ng/mL PKC (rat brain, Calbiochem 539494, specific activity=1600 nmol/min*mg). Compounds were screened for inhibition of the PKC kinase activity at a concentration of 10 μM. The kinase reaction was allowed to proceed at 37° C. for 30 minutes, then the reaction was stopped by addition of 5 μL of 0.5M EDTA (pH 8). The remainder of the protocol is identical to the one reported for ERK2.

[3] = molecular target: His tagged ERK2 (Homo sapiens, UniProt P28482); experiment: Extracellular signal Regulated Kinase 2 inhibition assay (ERK2), radioactive filtermat format
Method: as §1

His tagged ERK2, sequence (P28482 whole entry): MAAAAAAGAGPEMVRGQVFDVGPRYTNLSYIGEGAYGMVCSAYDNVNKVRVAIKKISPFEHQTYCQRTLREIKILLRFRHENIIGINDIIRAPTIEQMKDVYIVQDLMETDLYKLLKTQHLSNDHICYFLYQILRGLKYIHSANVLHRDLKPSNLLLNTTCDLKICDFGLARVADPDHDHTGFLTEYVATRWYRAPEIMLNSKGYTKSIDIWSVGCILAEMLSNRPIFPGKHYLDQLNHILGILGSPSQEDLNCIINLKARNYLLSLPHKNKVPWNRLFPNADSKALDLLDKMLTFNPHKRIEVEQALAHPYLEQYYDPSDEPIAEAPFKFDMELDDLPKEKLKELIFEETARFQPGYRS

NC(=O)[C@]1(N)CC2CC1n1c3ccccc3c3c4c(c5c6ccccc6n2c5c31)C(=O)NC4=O (mixture of isomers) [Compound 5]
inhibition at 10 µM [1]: 96.8% | % Inhibition PKC [2]: 91.62% | inhibition at 10 µM [3]: 92.3%
